# Measured values taken from patent US7115611B2, “Phenyl derivatives, their manufacture and use as pharmaceutical agents” (Hoffmann-la Roche Inc., priority 2003, dated 2006).
# Experiments:
# PPARγ = target: T1, PPARγ (Mus musculus, UniProt P37238); experiment: PPARγ receptor radioligand binding assay (SPA); settings: GST-PPARγ-LBD fusion protein on SPA beads
# T1 construct: PPARγ (aa 174 to 476); made in house; host or cells: E. coli BL21 (pLysS)
# T1 sequence (P37238 174-475 isoform P37238-2): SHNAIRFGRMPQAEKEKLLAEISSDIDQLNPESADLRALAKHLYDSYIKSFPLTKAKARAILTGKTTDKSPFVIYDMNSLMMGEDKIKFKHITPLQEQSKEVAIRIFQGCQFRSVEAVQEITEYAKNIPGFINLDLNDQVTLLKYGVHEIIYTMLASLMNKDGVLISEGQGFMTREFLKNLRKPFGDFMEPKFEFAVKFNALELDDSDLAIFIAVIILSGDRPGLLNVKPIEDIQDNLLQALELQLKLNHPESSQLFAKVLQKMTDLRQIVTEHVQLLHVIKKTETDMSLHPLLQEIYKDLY
# Excerpt: (§1) Background information on the performed assays can be found in: Nichols J S et al. “Development of a scintillation proximity assay for peroxisome proliferator-activated receptor gamma ligand binding domain”, (1998) Anal. Biochem. 257:112–119.
# (§2) Full-length cDNA clones for humans PPARδ and PPARα and mouse PPARγ were obtained by RT-PCR from human adipose and mouse liver cRNA, respectively, cloned into plasmid vectors and verified by DNA sequencing. Bacterial and mammalian expression vectors were constructed to produce glutathione-s-transferase (GST) and Gal4 DNA binding domain proteins fused to the ligand binding domains (LBD) of PPARδ (aa 139 to 442), PPARγ (aa 174 to 476) and PPARα (aa 167 to 469). To accomplish this, the portions of the cloned sequences encoding the LBDs were amplified from the full-length clones by PCR and then subcloned into the plasmid vectors. Final clones were verified by DNA sequence analysis.
# (§3) Induction, expression, and purification of GST-LBD fusion proteins were performed in E. coli strain BL21 (pLysS) cells by standard methods (Ref: Current Protocols in Molecular Biology, Wiley Press, edited by Ausubel et al.).
# (§4) PPARγ receptor binding was assayed in TKE50 (50 mM Tris-HCl, pH 8, 50 mM KCl, 2 mM EDTA, 0.1 mg/ml fatty acid-free BSA and 10 mM DTT). For each 96 well reaction a 140 ng equivalent of GST-PPARγ-LBD fusion protein was bound to 10 μg SPA beads (PharmaciaAmersham) in a final volume of 50 ul by shaking. The resulting slurry was incubated for 1 h at RT and centrifuged for 2 min at 1300g. The supernatant containing unbound protein was removed and the semidry pellet containing the receptor-coated beads was resolved in 50 ul of TKE. […] All binding assays were performed in 96 well plates and the amount of bound ligand measured on a Packard TopCount using OptiPlates (Packard). Nonspecific binding was determined in the presence of 10^−4 M unlabelled compound. […]
# PPARδ = target: T2, PPARδ (Homo sapiens, UniProt Q03181); experiment: PPARδ receptor radioligand binding assay (SPA); settings: GST-PPARδ-LBD fusion protein on SPA beads
# T2 construct: PPARδ (aa 139 to 442); made in house; host or cells: E. coli BL21 (pLysS)
# T2 sequence (Q03181 139-441 limits assumed): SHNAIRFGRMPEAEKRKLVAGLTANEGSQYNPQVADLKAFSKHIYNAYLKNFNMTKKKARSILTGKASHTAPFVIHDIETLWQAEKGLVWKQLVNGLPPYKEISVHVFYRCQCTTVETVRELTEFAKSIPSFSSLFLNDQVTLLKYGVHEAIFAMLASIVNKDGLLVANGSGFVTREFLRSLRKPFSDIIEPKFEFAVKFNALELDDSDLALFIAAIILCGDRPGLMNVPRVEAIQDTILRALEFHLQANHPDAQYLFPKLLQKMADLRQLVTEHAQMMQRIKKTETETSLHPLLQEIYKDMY
# Excerpt: as §1, §2, §3
# PPARδ receptor binding was assayed in HNM10 (50 mM Hepes, pH 7.4, 10 mM NaCl, 5 mM MgCl2, 0.15 mg/ml fatty acid-free BSA and 15 mM DTT). For each 96 well reaction a 500 ng equivalent of GST-PPARδ-LBD fusion protein and radioligand, e.g. 20000 dpm {2-methyl-4-[4-methyl-2-(4-trifluoromethyl-phenyl)-thiazol-5-yl-ditritiomethylsulfanyl]-phenoxy}-acetic acid, was bound to 10 μg SPA beads (PharmaciaAmersham) in a final volume of 50 μl by shaking. The resulting slurry was incubated for 1 h at RT and centrifuged for 2 min at 1300 g. […] Radioligand was added and the reaction incubated at RT for 1 h and scintillation proximity counting performed in the presence of test compounds was determined. All binding assays were performed in 96 well plates and the amount of bound ligand was measured on a Packard TopCount using OptiPlates (Packard). […]
# PPARα = target: T3, PPARα (Homo sapiens, UniProt Q07869); experiment: PPARα receptor radioligand binding assay (SPA); settings: GST-PPARα-LBD fusion protein on SPA beads
# T3 construct: PPARα (aa 167 to 469); made in house; host or cells: E. coli BL21 (pLysS)
# T3 sequence (Q07869 167-468 limits assumed): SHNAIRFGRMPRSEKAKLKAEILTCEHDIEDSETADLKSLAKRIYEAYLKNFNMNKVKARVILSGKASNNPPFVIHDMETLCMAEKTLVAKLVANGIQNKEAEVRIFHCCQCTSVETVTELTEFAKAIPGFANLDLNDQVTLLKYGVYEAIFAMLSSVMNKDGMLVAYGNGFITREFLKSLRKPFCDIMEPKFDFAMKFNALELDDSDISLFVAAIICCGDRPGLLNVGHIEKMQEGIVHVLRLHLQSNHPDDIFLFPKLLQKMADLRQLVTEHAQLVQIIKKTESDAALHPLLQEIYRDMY
# Excerpt: as §1, §2, §3
# as §4, with “PPARα receptor” for “PPARγ receptor”, “reaction an” for “reaction a”, “of GST-PPARα-LBD” for “of GST-PPARγ-LBD”, “50 μl” for “50 ul”, “at 1300 g.” for “at 1300g.”
Compound,IC50 (PPARγ),IC50 (PPARδ),IC50 (PPARα),melting point
"Cc1cc(OC(C)c2ccc(-c3ccc(C(F)(F)F)cc3)nc2C)ccc1SCC(=O)O (racemic) [Example 20, [rac]-(2-Methyl-4-{1-[2-methyl-6-(4-trifluoromethyl-phenyl)-pyridin-3-yl]-ethoxy}-phenylsulfanyl)-acetic acid]",> 10000 nM,2 nM,454 nM,
"Cc1cc(OCc2ccc(-c3cccc(C(F)(F)F)c3)nc2C)ccc1OC(C)(C)C(=O)O [Example 8, 2-Methyl-2-{2-methyl-4-[2-methyl-6-(3-trifluoromethyl-phenyl)-pyridin-3-ylmethoxy]-phenoxy}-propionic acid]",> 10000 nM,26 nM,13 nM,105 to 107 °C
"Cc1cc(N(C)Cc2cnc(-c3ccc(C(F)(F)F)cc3)nc2C2CC2)ccc1OCC(=O)O [Example 27, (4-{[4-Cyclopropyl-2-(4-trifluoromethyl-phenyl)-pyrimidin-5-ylmethyl]-methyl-amino}-2-methyl-phenoxy)-acetic acid]",> 10000 nM,31 nM,289 nM,

# Next, values leading:
IC50 (PPARγ),IC50 (PPARδ),IC50 (PPARα),melting point,Compound
,,,170 to 171 °C,"Cc1cc(OCc2ccc(-c3ccc(C(F)(F)F)cc3)nc2C2CC2)ccc1OC(C)(C)C(=O)O [Example 40, 2-{4-[2-Cyclopropyl-6-(4-trifluoromethyl-phenyl)-pyridin-3-ylmethoxy]-2-methyl-phenoxy}-2-methyl-propionic acid]"
,,,155 to 155.5 °C,"Cc1cc(OCc2cnc(-c3ccc(C(F)(F)F)cc3)nc2CCO)ccc1OC(C)(C)C(=O)O [Example 110, 2-{4-[4-(2-Hydroxy-ethyl)-2-(4-trifluoromethyl-phenyl)-pyrimidin-5-ylmethoxy]-2-methyl-phenoxy}-2-methyl-propionic acid]"
,,,168 to 169 °C,"Cc1cc(OCc2ccc(-c3ccc(C(F)(F)F)cc3)nc2C)ccc1SCC(=O)O [Example 146, {2-Methyl-4-[2-methyl-6-(4-trifluoromethyl-phenyl)-pyridin-3-ylmethoxy]-phenylsulfanyl}-acetic acid]"
